The text below walks through data of ChEMBL document CHEMBL5728913, “Indoleamine 2,3-dioxygenase inhibitor, method for preparation and use thereof” (2022).

As a reminder, the IC50 is the point on the concentration scale where inhibition reaches its midpoint.

The structures appear in SMILES notation. Several values for one entry are separate records, joined by “and”; a condition that tells them apart may be missing. Identical values can stand only once.

Chain of Indoleamine 2,3-dioxygenase 1 (P14902 whole entry): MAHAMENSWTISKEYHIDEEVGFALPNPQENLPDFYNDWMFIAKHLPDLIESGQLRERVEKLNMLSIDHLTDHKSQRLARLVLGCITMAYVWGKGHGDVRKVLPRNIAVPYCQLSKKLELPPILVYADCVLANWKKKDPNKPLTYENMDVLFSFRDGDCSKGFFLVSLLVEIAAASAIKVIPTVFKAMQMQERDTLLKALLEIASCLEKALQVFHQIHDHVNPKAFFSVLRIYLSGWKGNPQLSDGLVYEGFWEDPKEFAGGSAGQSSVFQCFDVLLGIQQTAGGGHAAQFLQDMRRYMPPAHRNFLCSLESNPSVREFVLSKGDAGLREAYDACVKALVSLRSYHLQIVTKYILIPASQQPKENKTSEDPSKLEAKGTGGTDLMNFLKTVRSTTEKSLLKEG

This experiment has as its target Indoleamine 2,3-dioxygenase 1 (Homo sapiens, UniProt P14902). Put plainly: Inhibitory Activity Assay: 1. […] Reagent Preparation100 mM PBS:100 mM disodium hydrogen phosphate and 100 mM potassium dihydrogen phosphate mixed in a ratio of 3:5, pH 6.5IDO1 assay buffer:100 mM PBS containing 400 μM L-tryptophan, 20 mM ascorbate, 20 μM methylene blue and 1000 U/ml catalase, pH 6.530% trichloroacetic acidddH2 O solution of 30% trichloroacetic acidEhrlich reagent1% (w/v) diluted solution of 4-(dimethylamino) benzaldehyde compoundAll compounds were dissolved with DMSO. During the assay, each compound was diluted to a concentration as needed. The compound of each concentration was added to multi-wells, and the final concentration of DMSO was controlled at 1%.3. Test Methoda.) the reaction mixture was prepared by adding 50 nM IDO1 and the desired concentration of the test compound to 100 μL of IDO1 assay buffer. IDO1 and assay buffer need to be preheated to 37° C.b.) The mixture was reacted in a constant temperature water tank at 37° C. for 30 minutes.c.) 50 μL of 30% trichloroacetic acid was added.d.) The above mixture was reacted in a constant temperature water tank at 52° C. for 30 minutes.e.) The reaction mixture was centrifuged at 12000 g for 10 minutes at room temperature.f.) 100 μL of the obtained supernatant and 100 μL of Ehrlich reagent were mixed.g.) the absorbance at 480 nm was measured using an M5 microplate reader.4. Data AnalysisInhibition rate=(ODpostive−ODsample)/(ODpositive−ODnegative)*100%5. Results and Discussion.
As to `O=C(Nc1ccccc1)ONc1nonc1/C(=N/O)Nc1ccc(F)c(Br)c1`, the IC50 stood at 48 nM.

`NS(=O)(=O)NCC1(CONc2nonc2/C(=N/O)Nc2ccc(F)c(Br)c2)CC1`: the IC50 is 82 nM.

As for `NC(=O)C(N)CCONc1nonc1/C(=N/O)Nc1ccc(F)c(Br)c1` (stereo not drawn), the concentration for half-maximal inhibition (IC50) was 85 nM.

For the compound `O=C(NCCONc1nonc1/C(=N/O)Nc1ccc(F)c(Br)c1)NC1CCCC1`, the IC50 came to 69 nM.

With `CCCCONc1nonc1/C(=N/O)Nc1ccc(F)c(Br)c1`, the IC50 turned out to be 80 nM.

As for `O/N=C(\Nc1ccc(F)c(Br)c1)c1nonc1NOC1CCCNC1` (stereo not drawn), the IC50 worked out at 80 nM.

For the compound `CC(=O)ONc1nonc1/C(=N/O)Nc1ccc(F)c(Br)c1`, the half-maximal inhibitory concentration (IC50) was 92 nM.

As to `CSNc1nonc1/C(=N/O)Nc1ccc(F)c(Cl)c1`, the IC50 amounted to 53 nM.

`O=C(NCCONc1nonc1/C(=N/O)Nc1ccc(F)c(Br)c1)Nc1cc(F)cc(F)c1`: the IC50 turned out to be 12 nM.

Consider `O=C(NCCOCCONc1nonc1/C(=N/O)Nc1ccc(F)c(Br)c1)Nc1cc(F)cc(F)c1`, for which the IC50 worked out at 72 nM.

For `O=C1C=CC(=O)N1CCONc1nonc1/C(=N/O)Nc1ccc(F)c(Cl)c1`, the half-maximal inhibitory concentration (IC50) is 32 nM and 58 nM.

In the case of `O/N=C(\Nc1ccc(F)c(Br)c1)c1nonc1NO`, the IC50 was found to be 125 nM.

Consider `CC(C)OC(=O)NCCONc1nonc1/C(=N/O)Nc1ccc(F)c(Br)c1`, for which the concentration for half-maximal inhibition (IC50) was 36 nM and 28 nM.

On to `O/N=C(\Nc1ccc(F)c(Br)c1)c1nonc1NOCCN1CCCC1`, for which the IC50 stood at 108 nM.

As for `O=C(ONc1nonc1/C(=N/O)Nc1ccc(F)c(Br)c1)c1ccccc1`, the half-inhibitory concentration (IC50) came to 65 nM.

Take `NS(=O)(=O)N1CCC(ONc2nonc2/C(=N/O)Nc2ccc(F)c(Br)c2)CC1`: the 50% inhibitory concentration (IC50) turned out to be 65 nM.

On to `CC(=O)NCCONc1nonc1/C(=N/O)Nc1ccc(F)c(Br)c1`, for which the half-maximal inhibitory concentration (IC50) worked out at 162 nM.

Take `O/N=C(\Nc1ccc(F)c(Br)c1)c1nonc1NOCCN1CCOCC1`: the concentration for half-maximal inhibition (IC50) was 43 nM and 38 nM.

For the compound `NC1CCC(ONc2nonc2/C(=N/O)Nc2ccc(F)c(Br)c2)CC1` (stereo not drawn), the IC50 is 184 nM.

Regarding `NCCONc1nonc1/C(=N/O)Nc1ccc(F)c(Br)c1`, the IC50 is 35 nM and 43 nM.

As for `O=C1CCC(=O)N1CCONc1nonc1/C(=N/O)Nc1ccc(F)c(Br)c1`, the IC50 was 96 nM.

Turning to `O/N=C(\Nc1ccc(F)c(Br)c1)c1nonc1NOCCOc1ccccc1`, the IC50 is 120 nM.

On to `O/N=C(\Nc1ccc(F)c(Cl)c1)c1nonc1NS`, for which the IC50 amounted to 104 nM.
